Reference: patent US20090162495A1, “Derivatives of Di-Carbonyl Aromachemicals” (FLEXITRAL INC, priority 2005, published 2009)

What was measured:
[1] = vapor pressure of the adduct; assay type: physicochemical; details: resulting in little or no odor
Source text: (§1) Diacetyl is known to form an adduct with sodium hydrogen sulfite [2-butanesulfonic acid, 2-hydroxy-3-oxo-, monosodium salt—CAS 13489-36-6]. See also French patent 2,845,903. This adduct is in equilibrium with the starting materials and, in practice, releases small amounts of diacetyl and sulfite continuously. The above-mentioned French patent discloses that the adduct is useful in hair care products as a straightening agent. The vapor pressure of the diacetyl adduct is negligible, thereby resulting in little or no odor. It is usually obtained and used in the form of a water-soluble salt, such as, e.g., an alkali metal (sodium) salt. Since it is water soluble, it can therefore be sprayed directly onto foodstuffs safely. The flavor imparted by the adduct is dominated by diacetyl, since at low concentrations, the sulfite taste and flavor is imperceptible.

[2] = water solubility of the adduct; assay type: physicochemical; details: water-soluble salt, e.g. alkali metal (sodium) salt
Source text: as §1

- vapor pressure [1]: negligible
- water solubility [2]: water soluble
SMILES: CC(=O)C(C)(O)S(=O)(=O)[O-].[Na+] (centres unmarked) [diacetyl adduct, 2-butanesulfonic acid, 2-hydroxy-3-oxo-, monosodium salt]
